Laboratory results from paper PMC12113347, “Compound 3d Attenuates Metabolic Dysfunction-Associated Steatohepatitis via Peroxisome Proliferator-Activated Receptor Pathway Activation and Inhibition of Inflammatory and Apoptotic Signaling” (Metabolites, 2025).
Like-named read-outs stand apart in the source and are kept apart here.

Tests used:
[1] = test system: L02 cells; experiment: Apoptosis test (Annexin V/PI, flow cytometry) in FFA-treated L02 cells; assay type: cell-based, human; details: after FFA treatment
Experimental: L02 cells were inoculated in 6-well plates at 1 × 10^5 cells/mL, and after completing the lipid-accumulating cell modeling treatment according to the method described in 2.1, the cells were collected and washed with 1× PBS buffer.
Apoptosis test: Binding Buffer was used to resuspend the modeling-treated cells, cells were stained with Annexin V/PI, and apoptosis was determined using flow cytometry.

[2] = Pharmacokinetics of 3d in male SD rats, tail vein injection; assay type: in vivo; details: 30 mg/kg; for half-life: SD, iv
Experimental: The pharmacokinetics of 3d in vivo were evaluated using male SD rats. Following a 12 h fast, the rats were administered 3d (30 mg/kg) via gavage or tail vein injection, respectively, and blood samples were collected within 24 h for analysis of 3d blood concentration via HPLC. The PK parameters were calculated using the DAS 3.0, and oral bioavailability (F) was obtained by the following formula.F = AUCpo × Di.v/AUCi.v × Dpo × 100%(1)

[3] = test system: PPAR signaling pathway and p38 MAPK pathway proteins; experiment: Proteomics and Western blotting of liver tissue of HFD mice (PPAR pathway, p38 MAPK and apoptosis proteins); assay type: in vivo
Experimental: Proteome sequencing of liver tissue samples was performed according to the specific requirements of the protocol by Beijing Qinglian Baiao Biotechnology Co., Ltd. (Beijing, China). Mouse fecal samples were collected and frozen in liquid nitrogen and stored at −80 °C.
(§1) Proteins were extracted using RIPA lysate and a BCA kit for protein concentration, separated by SDS-PAGE gel electrophoresis, and transferred to PVDF membranes. The membranes were sealed with 5% skimmed milk and incubated at 4 °C overnight with primary antibodies, followed by co-incubation with the corresponding secondary antibodies. The protein bands were imaged using an infrared laser imager and quantitatively analyzed by ImageJ software. The antibodies used for Western blot were Acox1 (Abcam, ab184032), Acaa1 (Abcam, ab154091), EHHADH (Abcam, ab123490), PPARγ (Abcam, ab272718), PPARα (Abcam, ab314112), PPARδ (Abcam, ab178866), P38 (Abcam, ab31828), p-P38 (Abcam, ab195049), Bcl-2 (Abcam, ab182858), Caspase8 (Abcam, ab25901), anti-rabbit IgG (CST, 7074 S), and α-tubulin (Abcam, ab7291).

[4] = test system: L02 cells; experiment: Effect of 3d on L02 cell proliferation/survival (Figure 1C); assay type: cell-based, human; details: 3d alone
[5] = test system: PPAR-related proteins; experiment: Western blotting of PPAR-related proteins in FFA-stimulated L02 cells; assay type: cell-based, human; details: Figure 6A
Experimental: as §1

[6] = test system: C57BL/6J male mice; experiment: HFD-induced MASH model in mice: serum and liver biochemistry, body and liver weight, histology; assay type: in vivo
Experimental: All animal studies were conducted in accordance with national legislation and local guidelines at the Center for Laboratory Animals in Tianjin University of Science and Technology and approved by the Animal Ethics Committee of Tianjin University of Science and Technology (8 March 2022, Tianjin, China). The C57BL/6J male mice (6 weeks) were purchased from Henan Scribex Biotechnology Co, Ltd (Zhenzhou, China). Following a one-week period of acclimatization, the mice were fed a high-fat diet (HFD) comprising 60% fat (TP23300, Trophic Animal Feed High-Tech Co., Ltd., (Nantong, China)) and a low-fat control diet (TP23302, Trophic Animal Feed High-Tech Co., Ltd., (Nantong, China)) for 16 weeks.
After 16 weeks of continuous feeding on a high-fat diet, key indicators were tested to determine modeling success and drug administration was initiated. The mice were randomly divided into seven groups (n = 10) according to their body weight. The groups were as follows: control group (control diet, 0.5% CMC-Na), model group (HFD, 0.5% CMC-Na), positive control group (HFD, 100 mg/kg Fenofibrate), elafibranor group (HFD, 30 mg/kg), and 3d group (HFD, 3, 10, 30 mg/kg). The experiment was conducted over a period of eight weeks.
After fasting for 12 h, the mice were anaesthetized and blood samples were collected, as were the mice liver tissues. The ileal contents were collected and immediately frozen in liquid nitrogen and then transferred to storage at −80 °C. The blood samples were subjected to centrifugation at 3000 rpm/min for 10 min to obtain supernatant serum, which was stored at −80 °C. The liver tissues were weighed, and a portion of the liver was preserved in 4% paraformaldehyde for subsequent pathological sectioning, including staining with H&E, Masson, and Oil Red O. The remaining samples were stored at −80 °C for testing of various biochemical indices.
The serum levels of TG, total cholesterol (TC), low-density lipoprotein cholesterol (LDL-C), […] aminotransferase (AST), ALT, and TNF-α were determined according to the instructions of the kit. The levels of glutathione (GSH) and superoxide dismutase (SOD) were measured using liver tissue homogenates. The kits were purchased from the Nanjing Jiancheng Institute of Biological Engineering (Nanjing, China).

[7] = male, rat, blood, SD rats, intravenous
[8] = HFD mice liver, Western blot, Figure 7A
[9] = HFD mice, liver tissue homogenates
[10] = HFD-fed mice, 30 mg/kg, p < 0.05 vs. model

Compound: CNc1ccc(C(=O)/C=C/c2cc(C)c(OC(C)(C)C(=O)OC(C)(C)C)c(C)c2)cc1 [3d]
- apoptosis [1]: decrease to near-normal levels
- AUC(0-t) ([2]; SD rats, intravenous): 108,480 ng/L*min
- AUC(0-∞) ([2]; SD rats, intravenous): 136,923 ng/L*min
- AUMC(0-t) ([2]; SD rats, intravenous): 11,816,712
- AUMC(0-∞) ([2]; SD rats, intravenous): 29,781,860
- Cz ([2]; SD rats, intravenous): 107 ng/L
- VRT(0-t) ([2]; SD rats, intravenous): 10,194 min^2
- VRT(0-∞) ([2]; SD rats, intravenous): 66,630 min^2
- Zeta ([2]; SD rats, intravenous): 0.004 min⁻¹
- half-life ([2]; male, rat, blood, SD rats, intravenous, read-out: T1/2): 3.03 h
- half-life ([2]; male, rat, blood, rats, intravenous administration, read-out: half-life (converted)): 3 h
- Cmax [2, 7]: 1.09 ng/mL
- Tmax [2, 7]: 5 min
- MRT last ([2]; male, rat, blood, SD rats, intravenous, read-out: MRT(0-t) (converted)): 1.8 h
- MRT inf ([2]; male, rat, blood, SD rats, intravenous, read-out: MRT(0-∞) (converted)): 3.62 h
- AUC intravenous relative to oral administration ([2]; rats): four times greater
- activation of caspase 8 [3, 8]: reversed the activation
- expression of the anti-apoptotic protein Bcl-2 [3, 8]: significantly up-regulated
- degree of P38 phosphorylation ([3]; HFD mice liver, Western blot, Figure 7B): significantly reduced
- upregulation of Acox1, EHHADH, Acaa1 ([3]; HFD mice liver, p < 0.001): 2.3–3.1 fold
- decrease in caspase-8 ([3]; HFD mice liver, p < 0.01): 61%
- increase in Bcl-2 ([3]; HFD mice liver, p < 0.01): 1.8 fold
- reduction in p-p38 ([3]; HFD mice liver, p < 0.01): 54%
- PPAR-related proteins (PPAR α, γ, δ, Acox1, EHHADH, Acaa1) in liver tissues ([3]; HFD mice, Western blot, Figure 6B): decreasing trend of PPAR-related proteins was significantly reversed
- cell survival of L02 cells [4]: significantly increased cell survival
- PPAR-related proteins in L02 cells [5]: significantly increased
- liver fibrosis (Masson staining) ([6]; HFD mice): successfully reversed
- liver steatosis and lipid accumulation (HE, Oil Red O sections) ([6]; HFD mice): significantly reduce the steatosis and ballooning in the liver and bring it back to normal
- serum TNF-α levels ([6]; HFD mice): reversed and returned to normal levels
- serum levels of LDL-C ([6]; HFD mice): markedly diminish
- body weight ([6]; HFD mice, 8 weeks of treatment): no significant effect
- serum TG levels ([6]; HFD mice, 8 weeks, fenofibrate 100 mg/kg, elafibranor 30 mg/kg, 3d 3, 10, 30 mg/kg): decreased and returned to normal levels
- liver GSH content [6, 9]: counteracting the reduction
- liver SOD content [6, 9]: counteracting the reduction
- TC levels ([6]; HFD mice, 3d 3, 10, 30 mg/kg): dose-dependent reduction
- serum ALT activity ([6]; HFD mice, 3d 3, 10, 30 mg/kg): dose-dependent reduction
- serum AST activity ([6]; HFD mice, 3d 3, 10, 30 mg/kg): dose-dependent reduction
- serum LDL-C decline [6, 10]: 45%
- serum TC reduction [6, 10]: 32%
- serum TG decrease [6, 10]: 39%
- serum TNF-α reduction [6, 10]: 57%
